The text below walks through data of US20220000860A1, “COMPOUNDS, COMPOSITIONS, AND METHODS FOR TREATING HUMAN IMMUNODEFICIENCY VIRUS” (OYAGEN, INC., priority 2017, published 2022).

For assay [1], the target named is T1, pNL4-3 Vif (Vif multimerization) (Human immunodeficiency virus type 1 group M subtype B, UniProt P12504).
T1 construct: expressed in transfected cells; host or cells: HEK293T
Nature of the assay: Vif FqRET Multimerization Assay. It counts as cell-based, HIV. The source says: The quenched fluorescence resonance energy transfer (FqRET) cell-based assay utilized expression of pNL4-3 Vif (accession no. M19921) tagged separately with either a EGFP fluorophore (EGFP-V5-Vif) or a REACh2 quencher (Vif-HA-REACh2) in the pIRES-P vector. The Vif multimerization assay was established through robotic co-transfection of HEK293T (293T) cells with Turbofect (Thermo) and optimized for input plasmid ratio (1:4, fluorophore to quencher) to achieve maximum quench of fluorescent signal. EGFP fluorescence was quantified 24 hours after transfection with a BioTek Synergy4 plate reader (ex=485 nm, em=528 nm) followed by the addition of 0-30 μM compound. The plates were read a second time 24 hours after compound addition. The differential between the first and second read in each well was quantified relative to the DMSO control to determine the change in relative fluorescence units (ΔRFU)
The interaction of 2 molecules of Vif (i.e. dimerization) enables quenching of Enhanced Green Fluorescent Protein (EGFP) signal by Resonance Energy Accepting Chromophore 2 (REACh2), a dark mutant of yellow fluorescent protein that is capable of accepting the EGFP donor fluorescence and quenching its signal without an acceptor signal.

The next assay deals with 00KE_KER2008 (Subtype A). The assay can be described thus: PBMC Acute Infection, 00KE_KER2008. In kind it is cell-based, HIV. The note with it: Human immunodeficiency virus 1, PBMC, isolate 00KE-KER2008, subtype A, RT activity readout; for pEC50: read-out: EC50; for EC90: read-out: EC90. The procedure: PHA-stimulated cells from at least two normal donors were pooled (i.e. mixed together), diluted in fresh medium to a final concentration of 1×10^6 cells/mL, and plated in the interior wells of a 96-well round bottom microplate at 50 μL/well (5×10^4 cells/well). Pooling of mononuclear cells from more than one donor was used to minimize the variability observed between individual donors in quantitative and qualitative differences in HIV infection and overall response to the PHA and IL-2 of primary lymphocyte populations. Each plate contained virus control wells (cells plus virus) and experimental wells (drug plus cells plus virus) of either 00KE_KER2008 (Subtype A), IIIB (Subtype B), or 98US_MSC5016 (Subtype C). Test drug dilutions were prepared at a 2×concentration and 100 μL of each concentration was placed in appropriate wells. Fifty μL of a predetermined dilution of virus stock was placed in each test well (final MOI≅0.1). After this period, cell-free supernatant samples were collected for analysis of reverse transcriptase (RT) activity with an RT assay. […] In the Table below SI50=CC50/EC50 and SI90=CC90/EC90.

The next assay addresses T2, topoisomerase I (TOP1) (Homo sapiens, UniProt P11387).
T2 sequence (P11387 1-765): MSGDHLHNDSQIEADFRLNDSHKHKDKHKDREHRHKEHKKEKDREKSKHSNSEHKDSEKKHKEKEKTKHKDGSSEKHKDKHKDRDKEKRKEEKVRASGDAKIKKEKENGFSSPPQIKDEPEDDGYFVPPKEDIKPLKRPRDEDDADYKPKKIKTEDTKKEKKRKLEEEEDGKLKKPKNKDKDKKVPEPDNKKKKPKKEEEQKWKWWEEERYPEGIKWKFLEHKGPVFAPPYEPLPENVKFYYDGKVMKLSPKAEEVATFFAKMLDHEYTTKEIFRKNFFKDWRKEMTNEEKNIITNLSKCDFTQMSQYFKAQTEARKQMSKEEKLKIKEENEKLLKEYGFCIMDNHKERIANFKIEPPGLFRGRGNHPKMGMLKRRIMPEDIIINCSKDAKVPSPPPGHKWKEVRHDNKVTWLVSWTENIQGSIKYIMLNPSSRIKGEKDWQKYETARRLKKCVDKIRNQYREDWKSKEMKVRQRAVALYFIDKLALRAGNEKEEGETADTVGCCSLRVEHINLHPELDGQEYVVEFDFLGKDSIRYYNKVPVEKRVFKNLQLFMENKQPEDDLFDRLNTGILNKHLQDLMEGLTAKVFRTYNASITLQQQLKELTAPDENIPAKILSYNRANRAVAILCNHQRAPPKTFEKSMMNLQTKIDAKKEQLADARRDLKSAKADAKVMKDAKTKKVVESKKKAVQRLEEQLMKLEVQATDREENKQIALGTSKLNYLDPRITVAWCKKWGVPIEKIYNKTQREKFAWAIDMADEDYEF
The assay can be described thus: topoisomerase I inhibition.

pEC50: −log10 of the molar value.

T1 sequence (P12504 whole entry): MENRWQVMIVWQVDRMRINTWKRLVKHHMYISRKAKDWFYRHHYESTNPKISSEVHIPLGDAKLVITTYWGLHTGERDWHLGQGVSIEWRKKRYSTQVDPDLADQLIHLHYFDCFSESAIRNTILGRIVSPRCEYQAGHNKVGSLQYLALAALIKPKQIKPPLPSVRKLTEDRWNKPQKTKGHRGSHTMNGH

As a reminder, the pEC50 is the negative decadic logarithm of the EC50, by convention in mol/L. A word on the EC90: it is the concentration at which the effect reaches the 90% level. In the case of `CCc1c2c(nc3ccc(N)cc13)-c1cc3c(c(=O)n1C2)CNC(=O)[C@]3(O)CC` [Compound O5-SN, (S)-9-Amino-4,11-diethyl-4-hydroxy-1,2-dihydroquinolino[2′,3′:3,4]pyrrolo[1,2-b][2,7]naphthyridine-3,14(4H,12H)-dione], in assay [1], the pEC50 was 6.44 and the “Vif multimerization (result in words)” value is “block”. In the assay on 00KE_KER2008 (Subtype A), the pEC50 was 8.22 and the EC90 came out at 18 nM. Besides, the “inhibition of topoisomerase I (TOP1) (result in words)” value at topoisomerase I (TOP1) is listed as “do not inhibit”.
Turning to `CCc1c2c(nc3ccc(O)cc13)-c1cc3c(c(=O)n1C2)CNC(=O)[C@]3(O)CC` [SN38-L, (S)-4,11-Diethyl-4,9-dihydroxy-1,2-dihydroquinolino[2′,3′:3,4]pyrrolo[1,2-b][2,7]naphthyridine-3,14(4H,12H)-dione], in assay [1], the pEC50 is 6.42 and the “Vif multimerization (result in words)” value was “block”. Moreover, in the assay with 00KE_KER2008 (Subtype A), the pEC50 is 8.40 and the EC90 worked out at 15 nM. Further, on topoisomerase I (TOP1), the “inhibition of topoisomerase I (TOP1) (result in words)” value is recorded as “do not inhibit”.
